Drawing on the METLIN SMRT retention time set (Domingo-Almenara et al. 2019), this text covers RP-LC retention time for 81 compounds.

A short description of this data set: gradient 5% acetonitrile 3 min, to 50% in 2 min, to 85% in 15 min, held 3 min, 100 µL/min. The conditions noted are these: column: Zorbax Extend-C18 2.1 x 50 mm; eluents: water / acetonitrile, 0.1% formic acid. The method in brief:
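Using water and acetonitrile that each contained 0.1% formic acid, mixtures of ~100 pure standards were separated at 100 μL/min on a Zorbax Extend-C18 column (2.1 × 50 mm, 1.8 μm). The HPLC fed a quadrupole time-of-flight mass spectrometer working in positive and negative ionization mode, with dead and dwell volumes of 40 μL and 900 μL. Data were acquired over 3 months. Retention time was read from computationally picked adduct peaks after manual inspection of each.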
Consider `CN(C)CCCNC(=O)C(=O)c1c(-c2ccccc2)cc2ccccn12`, for which the RP-LC retention time is 620 s.

In the case of `COC[C@@H]1CN(Cc2ccc3[nH]ccc3c2)C[C@H]1c1nc(C)no1`, the RP-LC retention time was found to be 610 s. The compound `Cc1ccsc1C(=O)Nc1ccc2c(N3CCCCC3)ncnc2c1` yielded an RP-LC retention time of 686 s.

`CC(C)n1cc(S(=O)(=O)N2CCN(c3ccccc3Cl)CC2)c2cccnc21` gave an RP-LC retention time of 761 s. Next, `CCNC(=O)c1n[nH]c2c1CC(C)CC2` (stereo unspecified): 685 s; `CCOC(=O)c1sc(NC(=O)Cc2ccc3c(c2)OCO3)cc1C`: 856 s; `O=C(NCC1CCCO1)C1CCN(c2nccnc2Sc2ccccc2)CC1` (stereo unspecified): 796 s. Next, `Cc1nc(Nc2ccc(F)cn2)sc1C(=O)N1CCN(c2ncccn2)CC1`: 719 s. Next, `CCCCN(C)C(=O)Cn1c(CO)nc2ccccc21`: 589 s; `CCS(=O)(=O)N1CC(=O)N(c2cccc(Cl)c2)C(C)(C(=O)NC2CCCCCC2)C1` (stereo unspecified): 895 s; `CCCCc1ccc(NC(=O)C2CCN(C(=O)C(C)(C)C)CC2)cc1`: 1020 s. The compound `Cc1nnc(C2CC3(CCN(CC(C)C)CC3)CN2Cc2ccccc2)o1` (stereo unspecified) gave an RP-LC retention time of 566 s.

Regarding `CCOc1cccc(-c2noc(Cc3nnc(-c4cccc(Br)c4)o3)n2)c1`, the RP-LC retention time is 1160 s.

`CN(C)S(=O)(=O)c1ccc(-c2nnc(C(=O)NCc3ccc(Br)cc3)o2)cc1` gave an RP-LC retention time of 912 s. On to `CC(C)c1cccc(Nc2nc3ccncc3n(C(C)C)c2=O)c1`, for which the RP-LC retention time came out at 707 s. Compound `COc1cccc(-c2nc(-c3ccc(S(=O)(=O)N4CCCCC4)cc3)no2)c1` showed an RP-LC retention time of 1270 s.

Compound `CC1CCN(CCNC(=O)c2nnc(-c3ccc(S(=O)(=O)N4CCCCC4)cc3)o2)CC1` displayed an RP-LC retention time of 663 s. Under `CCOC(=O)c1nc(N(C)c2ccccc2F)c2ccccc2n1` stands 931 s; under `Cc1nc2c(sc3nc(-c4ccccc4)ccc32)c(=O)n1CC(=O)Nc1ccc(F)cc1`, 1040 s. Under `CCCc1cc(N2CCN(C(=O)c3ccsc3)CC2)nc2nnc(C)n12` stands 611 s. As for `O=C(Cn1ncccc1=O)Nc1nccs1`, the RP-LC retention time amounted to 554 s.

Consider `Cc1sc(-c2nnc(C3CC3)o2)cc1NC(=O)c1ccc(N(C)C)cc1`, for which the RP-LC retention time came to 963 s. The compound `COCCN1C(=O)c2ccccc2C(C(=O)NCCc2ccc(OC)cc2)C12CCCC2` (stereo unspecified) came in with an RP-LC retention time of 807 s. Next, `CCOc1ccc(NC(=O)c2cc(C)n3nc(-c4ccco4)cc3n2)cc1`: 1130 s. `CCc1noc(NC(C)=O)c1-c1ccc(C)c(S(=O)(=O)Nc2ccc(C)c(Cl)c2)c1` came in with an RP-LC retention time of 914 s.

In the case of `Cc1ccc(CN2CCC3(CC2)CC(CC(=O)N2CCOCC2)CCO3)s1` (stereo unspecified), the RP-LC retention time was 595 s. Turning to `O=C(c1ccncc1)N1CCCC(OCc2nc(C3CC3)no2)C1` (stereo unspecified), the RP-LC retention time stood at 620 s. Next, `CCCc1nnc(NC(=O)CSc2ncc(-c3ccccc3)[nH]2)s1`: 632 s; `Cc1nc2c(c(N(C)CC(=O)N3CCCC3)n1)CCC2`: 561 s.

With `COc1cc(Cl)c(NC(=O)C2CCN(C(=O)C3Sc4ccccc4NC3=O)CC2)c(OC)c1` (stereo unspecified), the RP-LC retention time was 795 s. Next, `CN1C(=O)c2cccn2CC1C(=O)NCC1CC1` (stereo unspecified): 608 s; `Cc1ccc(CNC(=O)CCCn2c3ccccc3c3cnn(C)c(=O)c32)o1`: 814 s; `CC(=O)c1ccc(NC(=O)Cn2c(-c3cnccn3)nc(C)c(C)c2=O)cc1`: 680 s.

With `Cc1csc(-c2csc(S(=O)(=O)Nc3ccc(F)c(Cl)c3)c2)n1`, the RP-LC retention time was found to be 1020 s. The compound `COc1ccc(OC)c(NC(=O)NCCc2cn(C)c3ncccc23)c1` gave an RP-LC retention time of 686 s. Under `COc1ccc(-c2noc(N3CCC(C(=O)NCCC4=CCCCC4)CC3)n2)cc1` stands 1050 s; under `Cc1nnc(SCC2=C(C(=O)O)N3C(=O)C(NC(=O)Cn4cnnn4)C3SC2)s1` (stereo unspecified), 641 s; under `CCC(=O)N1CCc2cc(N3CC(C(=O)NCc4ccc(Cl)cc4)CC3=O)ccc21` (stereo unspecified), 637 s.

The compound `Cc1nc(-c2csc(S(=O)(=O)N3CCCC(C(=O)NCc4ccc(F)cc4)C3)c2)no1` (stereo unspecified) returned an RP-LC retention time of 892 s. Next, `CCOc1ccc(NC(=O)Cn2cccc2-c2nnc(-c3ccccc3)o2)cc1`: 990 s; `O=C(CN1CCN(Cc2nc(-c3ccc(N4CCCCC4)nc3)no2)CC1)N1CCCC1`: 587 s. Next, `O=C(CSc1nnc2c3cc(-c4ccccc4)nn3ccn12)Nc1cccc(C(F)(F)F)c1`: 969 s; `Cc1ccc(CNC(=O)c2cccc(-c3nc4cccnc4n3C(C)C)c2)o1`: 793 s. Next, `O=S(=O)(c1cccc(Cl)c1)N1CCc2nc(-c3ccccc3)ncc2C1`: 1170 s; `Cc1ccc(NC(=O)c2[nH]c3cc(C)sc3c2CN2CCOCC2)c(Cl)c1`: 731 s; `COc1cc(-c2noc(-c3nc(-c4ccccc4F)no3)n2)cc(OC)c1OC`: 1140 s. As to `COc1nn(C)cc1C(=O)N1CCCC(COCc2ccccc2)C1` (stereo unspecified), the RP-LC retention time worked out at 742 s.

With `CCOC(=O)c1cc2n(n1)CC(C)(C(=O)NC1CCCC1)N(Cc1cccc(F)c1)C2=O` (stereo unspecified), the RP-LC retention time worked out at 907 s.

`COc1ccc(C(O)CN2CCN(c3ncccn3)CC2)cc1` (stereo unspecified): the RP-LC retention time was found to be 747 s.

`Cn1nc(C(=O)N2CCN(c3cc(-c4ccccc4)ncn3)CC2)ccc1=O`: the RP-LC retention time is 547 s. `CCN(CC)CCOC(=O)c1cc(Cl)c(N)cc1OC`: the RP-LC retention time is 647 s. For the compound `O=C(Nc1ccccc1Cl)N1CCC(N2CCN(Cc3ccccc3)C(=O)C2=O)CC1`, the RP-LC retention time is 867 s. Next, `O=C(NCC1CCOCC1)Nc1ccccc1Cl`: 741 s. In turn, `Cc1cc(N2CCN(S(=O)(=O)c3cc(F)ccc3F)CC2)nc(NC2CCCCC2)n1` had an RP-LC retention time of 821 s. Next, `Cc1cnc(C(=O)N[C@@H]2CCC[C@@H]2C(=O)NCC2CCCCC2)cn1`: 742 s; `COc1cc2ncnc(Nc3ccc(NC(=O)c4ccccc4)cc3)c2cc1OC`: 687 s; `COc1ccc(CNC(=O)N2C[C@@H]3CN(S(=O)(=O)c4cccc(F)c4)C[C@H](C2)O3)cc1`: 771 s. The compound `CCOC(=O)N1CCN(C(=O)Cc2c(C)nn(-c3nc(-c4ccc(F)cc4)cs3)c2C)CC1` came in with an RP-LC retention time of 1010 s. Next, `CCOc1ccc(N(Cc2nc3nc(C)cc(C)n3n2)C(=O)c2ccco2)cc1`: 754 s; `Fc1ccc(OCc2nc(C3CCNC3)no2)cc1` (stereo unspecified): 626 s. Next, `Cc1ccc(S(=O)(=O)N2CCCCCC2)cc1-c1nnc(-c2ccc(F)cc2)o1`: 1220 s. For the compound `CN(C)c1ccc(CNC(=O)CCCn2c(=O)c3cccn3c3ccc(F)cc32)cc1`, the RP-LC retention time was found to be 658 s. Under `COc1ccccc1NC(=O)CSc1cc(N2CCN(c3ccccc3OC)CC2)ncn1` stands 1050 s; under `Cc1ccc(NC(=O)Cn2c(=O)c(CCC(=O)NC3CCCC3)nc3ccccc32)cc1C`, 863 s. For `CCOC(=O)c1ccccc1NC(=O)Cn1cccc(-c2nc(-c3ccc(Cl)cc3)no2)c1=O`, the RP-LC retention time stood at 1160 s. Under `Cc1cc(=O)oc2c3c(cc(OCC(=O)N[C@@H](C(=O)O)C(C)C)c12)OC(C)(C)CC3` stands 833 s; under `CCCNC(=O)N1CCCC1c1nc(-c2ccccc2C)no1` (stereo unspecified), 863 s.

Compound `Cc1ccn2c(NC(=O)C3CCCCC3)c(-c3ccc(F)cc3)nc2c1` yielded an RP-LC retention time of 657 s. Next, `COc1ccc(CNC(=O)C2CCN(c3ccc(SCc4ccccc4)nn3)CC2)cc1OC`: 704 s; `O=C(c1cc2ccccc2[nH]1)N1CCC(c2noc(C3CC3)n2)C1` (stereo unspecified): 1440 s. `O=S(=O)(c1ccc(F)cc1F)N1CCC(CN2CCCCCC2)CC1` displayed an RP-LC retention time of 648 s. Next, `CCOC(=O)c1cc(S(=O)(=O)N2CCCC2C(=O)NC(C)(C)CC)cn1C` (stereo unspecified): 931 s; `Cc1ccc(-c2ncc(C(=O)O)c(-c3ccncc3)n2)cc1`: 693 s; `CCCNC(=O)N1CCc2cc(-c3ccc(C(=O)N4CCOCC4)cc3)ccc21`: 732 s. `COc1ccc(-c2nnc(N3CCC(C(=O)N4CCOCC4)CC3)o2)cc1` had an RP-LC retention time of 664 s. Take `COc1ccc2oc(-c3csc(NC(=O)c4c(F)cccc4F)n3)cc2c1`: the RP-LC retention time came out at 1010 s.

Take `Cc1noc(-c2ccc(OC3CN(C(=O)CC4CCCC4)C3)cc2)n1`: the RP-LC retention time was 906 s. Turning to `O=C(c1cccc(Br)c1)N1CCN(c2nnc3ccccn23)CC1`, the RP-LC retention time worked out at 662 s.

Compound `O=c1ccn(-c2ccc(F)c(F)c2)nc1-c1nc(-c2ccc3c(c2)OCO3)no1` registered an RP-LC retention time of 877 s. For the compound `Cc1c(Cl)cccc1NC(=O)N(C)CC1CCOC1` (stereo unspecified), the RP-LC retention time amounted to 720 s. Under `Cc1cccc(CNC(=O)C2CCN(CCc3cn(C)c4ncccc34)CC2)c1` stands 626 s.
